# Data from paper PMC4138103 (PLoS ONE, 2014).
# System: Sprague-Dawley rats
# Test: Clinical chemistry
# Type: in vivo, Rattus norvegicus
# Design: key to Cholesterol, Dose response / Triglyserides, Dose response / Glucose, Dose response / Albumin, Dose response / K, Dose response / Total bilirubin, Dose response: D: significant dose response (for results, see Table 2); T: significant trend
# Conditions: for Alkaline phosphatase, CED / Alkaline phosphatase, CED-L / Chlolesterol, CED / Chlolesterol, CED-L / Glucose, CED / Glucose, CED-L / Potassium, CED / Potassium, CED-L / Total Bilirubin, CED / Total Bilirubin, CED-L / Albumin, CED / Albumin, CED-L / Total protein, CED / Total protein, CED-L / Triglycerides, CED / Triglycerides, CED-L: total dose based
# Description: Spectrophotometric methods were used for the determination of serum total calcium, cholesterol, creatinine, glucose, triglycerides and urea. Serum sodium, potassium and chloride concentrations were measured directly by ion selective electrodes. The analyses were performed by a clinical chemistry analyzer (Konelab 30i, ThermoFisher Scientific, Vantaa, Finland). Plasma lactate dehydrogenase (LD) activity was measured according to the recommendations of the International Federation of Clinical Chemistry (IFCC 1994/I) using Konelab 60i clinical chemistry analyzer. Methods and results for liver related parameters (serum alanine aminotransferase [ALT] activity, alkaline phosphatase [ALP] activity, albumin, total protein and total bilirubin are reported separately.
# Data were also analyzed using the BMD method, which is based on dose-response modeling of the full data set using a nested family of exponential and Hill models. The analyses were done on data of males and females combined, using sex as a covariate. […] In that case, different Critical Effect Doses (CEDs) and CEDs at the lowest bound of the confidence interval (CED-L) were generated for each sex. If no difference between sexes is detected, a CED and CED-Ls for the combined data is generated. However, this was also done if the curve fits are close, and separate analyses for males and females were then performed manually. CEDs and CED-Ls were calculated at the predefined Critical Effect Size (CES) of 5% (EFSA standard) or 10%.
# [1] = females, total dose 1700 mg/kg bw
# [2] = females, adipose tissue concentration based
# [3] = males, total dose 0-1700 mg/kg bw
# [4] = males, total dose 1000 mg/kg bw
# [5] = males, total dose 1700 mg/kg bw
# [6] = males, adipose tissue concentration based
structure (smiles),measurement,setting,value
"Clc1cc(Cl)c(-c2cc(Cl)c(Cl)c(Cl)c2Cl)cc1Cl [PCB 180, 2,2′,3′,4,4′,5,5′-heptachlorobiphenyl]",Creatinine,[1],52.5 µmol/L
same,Glucose,[1],12.4 mmol/L
same,K,[1],5.30 mmol/L
same,Na,[1],143.2 mmol/L
same,Total Ca,[1],3.49 mmol/L
same,Total bilirubin,[1],1.37 µmol/L
same,Triglyserides,[1],0.88 mmol/L
same,Urea,[1],10.0 mmol/L
same,"Alkaline phosphatase, CED","females, CES 5%",67.6 mg/kg bw
same,"Alkaline phosphatase, CED-L","females, CES 5%",30.1 mg/kg bw
same,"Chlolesterol, CED","females, CES 5%",192 mg/kg bw
same,"Chlolesterol, CED-L","females, CES 5%",167 mg/kg bw
same,"Glucose, CED","females, CES 5%",677 mg/kg bw
same,"Glucose, CED-L","females, CES 5%",408 mg/kg bw
same,"Potassium, CED","females, CES 5%",1210 mg/kg bw
same,"Potassium, CED-L","females, CES 5%",786 mg/kg bw
same,"Total Bilirubin, CED","females, CES 5%",4.12 mg/kg bw
same,"Total Bilirubin, CED-L","females, CES 5%",0.67 mg/kg bw
same,"Alkaline phosphatase, CED","females, CES 10%",154 mg/kg bw
same,"Alkaline phosphatase, CED-L","females, CES 10%",68.5 mg/kg bw
same,"Chlolesterol, CED","females, CES 10%",375 mg/kg bw
same,"Chlolesterol, CED-L","females, CES 10%",326 mg/kg bw
same,"Glucose, CED","females, CES 10%",1390 mg/kg bw
same,"Glucose, CED-L","females, CES 10%",839 mg/kg bw
same,"Potassium, CED","females, CES 10%",2490 mg/kg bw
same,"Potassium, CED-L","females, CES 10%",1614 mg/kg bw
same,"Total Bilirubin, CED","females, CES 10%",10.3 mg/kg bw
same,"Total Bilirubin, CED-L","females, CES 10%",1.63 mg/kg bw
same,"Serum ALP activity, CED",[2],308 µg/g lipid
same,"Serum cholesterol, CED",[2],640 µg/g lipid
same,"Albumin, Dose response",[3],T
same,"Cholesterol, Dose response",[3],T
same,"Glucose, Dose response",[3],T
same,"Triglyserides, Dose response",[3],T
same,Albumin,"males, total dose 3 mg/kg bw",32.6 g/L
same,Cholesterol,"males, total dose 3 mg/kg bw",2.72 mmol/L
same,Cl,"males, total dose 3 mg/kg bw",96.9 mmol/L
same,Creatinine,"males, total dose 3 mg/kg bw",54.2 µmol/L
same,Glucose,"males, total dose 3 mg/kg bw",18.9 mmol/L
same,K,"males, total dose 3 mg/kg bw",5.76 mmol/L
same,Na,"males, total dose 3 mg/kg bw",143.1 mmol/L
same,Total Ca,"males, total dose 3 mg/kg bw",3.43 mmol/L
same,Total bilirubin,"males, total dose 3 mg/kg bw",2.02 µmol/L
same,Triglyserides,"males, total dose 3 mg/kg bw",0.84 mmol/L
same,Urea,"males, total dose 3 mg/kg bw",9.0 mmol/L
same,Albumin,"males, total dose 10 mg/kg bw",32.9 g/L
same,Cholesterol,"males, total dose 10 mg/kg bw",2.84 mmol/L
same,Cl,"males, total dose 10 mg/kg bw",96.8 mmol/L
same,Creatinine,"males, total dose 10 mg/kg bw",51.5 µmol/L
same,Glucose,"males, total dose 10 mg/kg bw",14.9 mmol/L
same,K,"males, total dose 10 mg/kg bw",6.12 mmol/L
same,Na,"males, total dose 10 mg/kg bw",143.0 mmol/L
same,Total Ca,"males, total dose 10 mg/kg bw",3.41 mmol/L
same,Total bilirubin,"males, total dose 10 mg/kg bw",1.58 µmol/L
same,Triglyserides,"males, total dose 10 mg/kg bw",0.88 mmol/L
same,Urea,"males, total dose 10 mg/kg bw",8.2 mmol/L
same,Albumin,"males, total dose 30 mg/kg bw",32.8 g/L
same,Cholesterol,"males, total dose 30 mg/kg bw",2.74 mmol/L
same,Cl,"males, total dose 30 mg/kg bw",96.0 mmol/L
same,Creatinine,"males, total dose 30 mg/kg bw",53.8 µmol/L
same,Glucose,"males, total dose 30 mg/kg bw",18.6 mmol/L
same,K,"males, total dose 30 mg/kg bw",5.93 mmol/L
same,Na,"males, total dose 30 mg/kg bw",142.9 mmol/L
same,Total Ca,"males, total dose 30 mg/kg bw",3.44 mmol/L
same,Total bilirubin,"males, total dose 30 mg/kg bw",1.46 µmol/L
same,Triglyserides,"males, total dose 30 mg/kg bw",0.65 mmol/L
same,Urea,"males, total dose 30 mg/kg bw",9.3 mmol/L
same,Albumin,"males, total dose 100 mg/kg bw",33.1 g/L
same,Cholesterol,"males, total dose 100 mg/kg bw",3.56 mmol/L
same,Cl,"males, total dose 100 mg/kg bw",96.3 mmol/L
same,Creatinine,"males, total dose 100 mg/kg bw",53.4 µmol/L
same,Glucose,"males, total dose 100 mg/kg bw",17.8 mmol/L
same,K,"males, total dose 100 mg/kg bw",5.74 mmol/L
same,Na,"males, total dose 100 mg/kg bw",143.0 mmol/L
same,Total Ca,"males, total dose 100 mg/kg bw",3.58 mmol/L
same,Total bilirubin,"males, total dose 100 mg/kg bw",1.54 µmol/L
same,Triglyserides,"males, total dose 100 mg/kg bw",0.34 mmol/L
same,Urea,"males, total dose 100 mg/kg bw",9.2 mmol/L
same,Albumin,"males, total dose 300 mg/kg bw",32.5 g/L
same,Cholesterol,"males, total dose 300 mg/kg bw",3.44 mmol/L
same,Cl,"males, total dose 300 mg/kg bw",96.3 mmol/L
same,Creatinine,"males, total dose 300 mg/kg bw",52.6 µmol/L
same,Glucose,"males, total dose 300 mg/kg bw",17.7 mmol/L
same,K,"males, total dose 300 mg/kg bw",5.73 mmol/L
same,Na,"males, total dose 300 mg/kg bw",142.7 mmol/L
same,Total Ca,"males, total dose 300 mg/kg bw",3.46 mmol/L
same,Total bilirubin,"males, total dose 300 mg/kg bw",1.73 µmol/L
same,Triglyserides,"males, total dose 300 mg/kg bw",0.36 mmol/L
same,Urea,"males, total dose 300 mg/kg bw",9.0 mmol/L
same,Albumin,[4],34.2 g/L
same,Cholesterol,[4],4.35 mmol/L
same,Cl,[4],95.7 mmol/L
same,Creatinine,[4],53.8 µmol/L
same,Glucose,[4],11.8 mmol/L
same,K,[4],6.12 mmol/L
same,Na,[4],142.6 mmol/L
same,Total Ca,[4],3.45 mmol/L
same,Total bilirubin,[4],1.84 µmol/L
same,Triglyserides,[4],0.32 mmol/L
same,Urea,[4],9.9 mmol/L
same,Albumin,[5],34.4 g/L
same,Cholesterol,[5],5.15 mmol/L
same,Cl,[5],97.7 mmol/L
same,Creatinine,[5],55.4 µmol/L
same,Glucose,[5],12.7 mmol/L
same,K,[5],5.89 mmol/L
same,Na,[5],143.4 mmol/L
same,Total Ca,[5],3.53 mmol/L
same,Total bilirubin,[5],1.87 µmol/L
same,Triglyserides,[5],0.44 mmol/L
same,Urea,[5],9.1 mmol/L
same,"Albumin, CED","males, CES 5%",1550 mg/kg bw
same,"Albumin, CED-L","males, CES 5%",1090 mg/kg bw
same,"Alkaline phosphatase, CED","males, CES 5%",542 mg/kg bw
same,"Alkaline phosphatase, CED-L","males, CES 5%",327 mg/kg bw
same,"Chlolesterol, CED","males, CES 5%",38.3 mg/kg bw
same,"Chlolesterol, CED-L","males, CES 5%",19.5 mg/kg bw
same,"Glucose, CED","males, CES 5%",198 mg/kg bw
same,"Glucose, CED-L","males, CES 5%",146 mg/kg bw
same,"Total protein, CED","males, CES 5%",255 mg/kg bw
same,"Total protein, CED-L","males, CES 5%",134 mg/kg bw
same,"Triglycerides, CED","males, CES 5%",3.31 mg/kg bw
same,"Triglycerides, CED-L","males, CES 5%",1.90 mg/kg bw
same,"Albumin, CED","males, CES 10%",3040 mg/kg bw
same,"Albumin, CED-L","males, CES 10%",2130 mg/kg bw
same,"Alkaline phosphatase, CED","males, CES 10%",1110 mg/kg bw
same,"Alkaline phosphatase, CED-L","males, CES 10%",672 mg/kg bw
same,"Chlolesterol, CED","males, CES 10%",79.0 mg/kg bw
same,"Chlolesterol, CED-L","males, CES 10%",40.4 mg/kg bw
same,"Glucose, CED","males, CES 10%",408 mg/kg bw
same,"Glucose, CED-L","males, CES 10%",300 mg/kg bw
same,"Total protein, CED","males, CES 10%",702 mg/kg bw
same,"Total protein, CED-L","males, CES 10%",379 mg/kg bw
same,"Triglycerides, CED","males, CES 10%",6.92 mg/kg bw
same,"Triglycerides, CED-L","males, CES 10%",3.97 mg/kg bw
same,"Serum chlolesterol, CED-L",[6],91400 ng/g lipid
same,"Serum cholesterol, CED",[6],177 µg/g lipid
same,"Serum total protein, CED",[6],1080 µg/g lipid
same,"Serum triglyceride, CED",[6],12.5 µg/g lipid
same,"Serum triglycerids, CED-L",[6],7260 ng/g lipid
